Results reported in paper PMC7954794, “Protein context shapes the specificity of SH3 domain-mediated interactions in vivo” (Nature Communications, 2021).

Tests used:
Type in all cases: cell-based, Saccharomyces cerevisiae
ABP1 = experiment: DHFR-PCA on solid medium, bait ABP1 (Fig. 1B); conditions: bait ABP1, label = prey; for medrep (log2 median colony size normalized to plate background, PCA score): 2-4 replicates
Source text: (§1) Supplement 41467_2021_21873_MOESM8_ESM.xlsx, sheet "Fig1B" | column: medsize; medrep; Ratio; Score

Abp1 PPIs = experiment: DHFR-PCA of Abp1 SH3-swapped baits (Fig. 2B-D, S2C, S2F); conditions: Fig2B; bait ABP1, label = prey; Replicates 4
Source text: Having determined that multiple PPIs require SH3s, we asked whether the latter establish PPI specificity independently from their host proteins by swapping domains (Fig. 2A). Using the second round of genome editing, we individually replaced Abp1 SH3 with the 27 yeast SH3s and 3 human Abp1 orthologs’ SH3s (CTTN, HCLS1, and DBNL, Fig. 2B). The reintroduction of its own SH3 (Abp1SH3 in Abp1) reconstitutes almost perfectly Abp1’s interaction profile (Kendall’s τ = 0.93, Fig. 2B). […] No homologous SH3 domain fully re-establishes the normal Abp1 PPI profile (Fig. 2B and Supplementary Fig. 2C). However, we observe a significant correlation (cophenetic correlation = 0.20, p value = 0.005, Fig. 2C) between the similarity of PPI profiles (Fig. 2B) and the sequence similarity of the SH3s. […] Nonetheless, a subset of SH3-dependent PPIs is only observed with the endogenous domain. For instance, Hua2 and App1, both well-characterized partners of Abp1[14],[18],[19], are only detected when Abp1 contains its own SH3 (WT or swapped via editing). A given SH3 may therefore not be fully replaceable with other paralogous or orthologous domains. This pattern is confirmed by cellular growth phenotypic analyses (Supplementary Fig. 2D, E). PPIs, SH3 sequence similarity, and growth profiles under stress conditions are correlated (Supplementary Fig. 2D, E). This relationship is particularly clear when analyzing growth on media supplemented with hygromycin.
The stuffing of YSC84 SH3 rendered the strain sterile and was therefore not used for this study as the assays require crosses. For genes containing two SH3s (BZZ1 and BEM1), a combination of this first stuffer with a second one ([…]) coding for a highly similar linker ([…]) was used, which allowed targeting each SH3 position independently. The two N-terminal domains of SLA1, which are separated by six nucleotides, were stuffed by a single stuffer. Cells containing pCAS were selected via the G418 resistance cassette from the plasmid on YPD plates (YPD + NAT 100 μg/ml (DHFR F[1,2] selection) + G418 200 µg/mL (Bioshop Canada)). Colonies were randomly selected and grown in YPD media without G418 to allow plasmid loss. The correct insertion of the stuffer was validated by PCR and Sanger sequencing. The SH3-swapped, -shuffled, and -mutated strains were constructed following a second CRISPR–Cas9 editing step with the same procedures. The stuffer sequences were targeted by specific gRNAs (one gRNA per stuffer) and replaced by PCR amplified specific SH3 (with 40 bp homology arms) or libraries of mutated SH3 domains for Deep Mutational Scanning (DMS) with 78 bp flanking homology regions. Validation of the SH3 domain insertions was done as we previously described except for DMS libraries (see below).
The overall DHFR-PCA pipeline is based on Tarassov et al.[43] and the procedures have also been published as a visualized protocol. The screens were performed with robotically manipulated pin tools (BM5-SC1, S&P Robotics Inc.). First, the preys were cherry-picked from 96-well plates to omnitrays in a 384 format on YPD + HPH solid media. Plates were then combined into the 1536 format on YPD + HPH. The array was constituted of 575 preys previously shown to interact physically with at least one SH3-containing protein as reported in BioGRID V3.4.16 along with 40 negative controls. The prey array comprised a border of control strains of two rows and two columns corresponding to the PPI between LSM8-DHFR F[1,2] and CDC39-DHFR F[3]. This double border was used to remove border effects. Preys are present in duplicate at a randomized position in the 1536 array (except for YAL041W which is present four times per array). Baits were crossed with two prey plates, resulting in four independent bait–prey tests for each PPI. Baits were grown in liquid YPD + NAT and then transferred on solid YPD + NAT omnitrays. They were then replicated on YPD + NAT omnitrays in 1536 array format. […]

BBC1 = experiment: DHFR-PCA on solid medium, bait BBC1 (Fig. 1B); conditions: bait BBC1, label = prey; for medrep (log2 median colony size normalized to plate background, PCA score): 2-4 replicates; for Ratio (SH3-deleted/WT medrep): only significant differences showed, PPIs completely lost have a ratio of 0.1 and the gained PPIs 2.5
Source text: as §1

[1] = tested on: 575 putative partners (preys) of 22 WT SH3-containing proteins; experiment: DHFR-PCA on solid medium, WT and SH3-deleted baits (Fig. 1B); set-up: key to Score: 0: SH3-independent; 1: SH3-dependent PPIs; 2: SH3-inhibited PPIs; conditions: for medrep (log2 median colony size normalized to plate background, PCA score): label = prey; for Ratio (SH3-deleted/WT medrep): only significant differences shown, PPIs completely lost have a ratio of 0.1, gained PPIs 2.5
Source text: To assess the requirement of SH3 domains for PPIs in vivo, we first measured binary interactions between 22 WT SH3-containing proteins (Supplementary Fig. 1A) as baits and 575 putative partners from their interconnected signaling networks using the dihydrofolate reductase protein–fragment complementation assay (DHFR-PCA) in the budding yeast Saccharomyces cerevisiae. About 33% (202/607) of the PPIs detected were described before, mostly by direct methods (Supplementary Fig. 1B, C)[11]. We repeated the experiments with baits in which the SH3s were individually replaced with a flexible linker by genome editing (SH3 domain deletion/stuffing, Fig. 1A). The stuffer DNA sequence ([…]) codes for a small flexible poly-Gly with Ser peptide ([…]) that is inspired by previous experiments[12],[13]. About a third of the SH3-containing protein interactome is qualitatively or quantitatively SH3-dependent (171 PPIs out of 607, Fig. 1B and Supplementary Fig. 1B, C). We validated the vast majority of the quantitative changes in low-throughput experiments and excluded that this is simply due to changes in protein abundance in most cases (Supplementary Fig. 1D–G). SH3-binding motifs[14] are more frequent in the SH3-dependent PPI partners when compared to sequences from random proteins, SH3-independent PPI partners or PPI partners that are stronger or gained following SH3 deletions (p values = 1.5 × 10^−17, 0.0038 and 2.1 × 10^−08, respectively; Mann–Whitney test, one-tailed, Fig. 1C). The changes we measure are therefore enriched for PPIs that depend on the direct interactions of the domains with the PPI partners.
The complete list of strains, primers, and gRNAs used in this study can be found in Supplementary Tables 1–3. All constructed yeast strains were validated by polymerase chain reaction (PCR) and confirmed by Sanger sequencing of the locus of interest. Bait strains for the DHFR-PCA experiments were constructed as follows. The genes of interest were fused at their genomic 3′ end by replacing the stop codon with a linker ([…]), the DHFR F[1,2] followed by a smaller linker (GGGGS), a 1× FLAG tag ([…]) and the NATMX4 resistance cassette via homologous recombination (all amplified from pAG25-DHFR[1,2]-linker-FLAG). The set of 615 prey strains (DHFR F[3] fusions in the BY4742 background) were retrieved from the Yeast Protein Interactome Collection[43] with the exception of 73 that were reconstructed (Supplementary Tables 1 and 2). Knockout strains were taken from the yeast knockout collection except for ABP1, BEM1, BZZ1, and SLA1, which were reconstructed by replacing the ORFs with the NATMX4 resistance cassette by homologous recombination in the BY4741 background.
Yeast SH3 domain genomic sequences were replaced by CRISPR–Cas9 genome editing. Each SH3 domain (as defined by the SMART database V8.0 except for Ysc84 SH3 (as defined by PROSITE), see Source Data for all SH3 sequences and Supplementary Table 1 for primers used) was specifically targeted by one gRNA[46]. Yeast competent cells were co-transformed with a pCAS plasmid (Addgene plasmid 60847[47]) expressing both the gRNA of interest and Streptococcus pyogenes Cas9[46] and a donor DNA sequence (stuffer) with 60 bp homology arms surrounding the SH3 DNA sequence. The Stuffer DNA was either PCR amplified or digested from a plasmid. The stuffer DNA sequence ([…]) codes for a small flexible linker ([…]) inspired by protein linkers used in structural biology[12],[13]. This type of linker is frequently used for fusing proteins without affecting the structure of the linked proteins.
The overall DHFR-PCA pipeline is based on Tarassov et al.[43] and the procedures have also been published as a visualized protocol. The screens were performed with robotically manipulated pin tools (BM5-SC1, S&P Robotics Inc.). First, the preys were cherry-picked from 96-well plates to omnitrays in a 384 format on YPD + HPH solid media. […]

[2] = bait SLA1-2, DHFR-PCA, Replicates 4 (2 for YCR009C, YDR388W)
[3] = bait SLA1-3, DHFR-PCA, Replicates 4 (2 for YCR009C, YDR388W, YIL033C)

Row | Substance | medrep (log2 median colony size normalized to plate background, PCA score) (ABP1) | Ratio (SH3-deleted/WT medrep) (ABP1; only significant differences showed, PPIs completely lost have a ratio of 0.1 and the gained PPIs 2.5) | medrep (log2 median colony size normalized to plate background) (Abp1 PPIs) | medsize (median colony size) (Abp1 PPIs) | medrep (log2 median colony size normalized to plate background, PCA score) (BBC1) | Ratio (SH3-deleted/WT medrep) (BBC1) | medrep (log2 median colony size normalized to plate background, PCA score) [1, 2] | Score ([1]; bait SLA1-2, label = prey) | Ratio (SH3-deleted/WT medrep) ([1]; bait SLA1-2, label = prey) | medrep (log2 median colony size normalized to plate background, PCA score) [1, 3] | Score ([1]; bait SLA1-3, label = prey)
1 | YBL017C | 2.711 | 1.6455 | 1.647 | 447.5 |  |  |  |  |  |  | 
2 | YDR388W (ETVTALYDYQAQAAGDLSFPAGAVIEIVQRTPDVNEWWTGRYNGQQGVFPGNYVQLNK) | 4.711 |  |  |  | 1.395 | 0.1 | 1.88 | 1 | 0.1 | 1.88 | 0
3 | YER166W | 3.035 |  |  |  |  |  | 2.422 | 1 | 0.1 | 2.422 | 0
4 | YFR024C-A (PKAVALYSFAGEESGDLPFRKGDVITILKKSDSQNDWWTGRVNGREGIFPANYVELV) | 5.192 |  |  |  | 1.926 | 0.1 |  |  |  | 4.788 | 0
5 | YHR016C (SATPTAVALYNFAGEQPGDLAFKKGDVITILKKSDSQNDWWTGRTNGKEGIFPANYVRVS) | 4.9581 |  |  |  |  |  | 1.614 | 1 | 0.4201 | 3.842 | 0
6 | YIL062C | 5.265 |  |  |  | 4.09 |  |  |  |  | 4.44 | 0
7 | YLR370C | 5.077 |  |  |  | 4.024 |  | 2.335 | 1 | 0.5146 | 4.537 | 0
8 | YNL138W | 5.358 |  |  |  | 2.102 | 0.1 | 2.731 | 1 | 0.1 | 2.731 | 0
9 | YOR181W | 4.4673 |  |  |  | 1.945 | 0.4732 | 2.241 | 1 | 0.4606 | 4.865 | 0
10 | YPR184W | 3.5 |  |  |  |  |  | 2.1199 | 1 | 0.1 | 2.1199 | 0
